Measurements published in US20110118274A1, “PROTEASOME INHIBITORS AND THEIR USE IN TREATING PATHOGEN INFECTION AND CANCER” (CORNELL RESEARCH FOUNDATION, INC., priority 2007, published 2011).
Where two headings read alike, the source gives them in different places.

Key:
Mtb proteasome [1] = molecular target: T1, Mtb proteasome (Mycobacterium tuberculosis, UniProt P9WHT9); experiment: Preliminary inhibition studies of Mtb proteasome with oligopeptide substrates; type: biochemical
T1 construct: made in house; host or cells: E. coli
T1 sequence (P9WHT9 58-291): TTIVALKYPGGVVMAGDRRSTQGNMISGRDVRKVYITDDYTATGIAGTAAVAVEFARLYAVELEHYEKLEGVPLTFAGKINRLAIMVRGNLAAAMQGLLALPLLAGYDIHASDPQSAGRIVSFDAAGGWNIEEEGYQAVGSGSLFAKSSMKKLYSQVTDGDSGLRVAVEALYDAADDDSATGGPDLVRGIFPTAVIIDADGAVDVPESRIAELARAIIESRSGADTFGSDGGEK
T1 sequence (P9WHU1 9-248 partner, looked up, natural form): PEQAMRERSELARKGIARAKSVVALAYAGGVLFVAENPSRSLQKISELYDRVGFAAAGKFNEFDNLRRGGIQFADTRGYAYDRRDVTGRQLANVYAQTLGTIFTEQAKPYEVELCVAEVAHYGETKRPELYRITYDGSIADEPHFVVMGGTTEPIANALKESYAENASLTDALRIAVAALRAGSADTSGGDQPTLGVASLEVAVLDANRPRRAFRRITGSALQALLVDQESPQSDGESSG

Mtb PrcAB-OG [2] = molecular target: T2, Mtb PrcAB-OG (Mycobacterium tuberculosis, UniProt P9WHT9); experiment: biochemical; type: biochemical
T2 construct: made in house; host or cells: E. coli
Target sequence in this assay (P9WHT9 58-291): as the sequence (P9WHT9 58-291) above

Mtb PrcAB-OG [3] = experiment: biochemical; type: biochemical, Mycobacterium tuberculosis
[4] = molecular target: human 20S-β5 (Hu20S PA28) (Homo sapiens, UniProt P28074); experiment: Kinetics of inhibition of human 20S proteasome β5 site in presence of PA28; type: biochemical
M. bovis BCG = experiment: microbe, parasite or virus in culture; type: cell-based, Mycobacterium bovis BCG; settings: for reduction of colony forming units (CFU): cells exposed to DETA-NO 50 μM; for log reduction at 25 µM: Mycobacterium tuberculosis variant bovis BCG, BCG, 96 h, read-out: BCG killing (25 μM)
Mtb H37Rv = experiment: Mycobactericidal activity against Mtb (CFU); type: cell-based, Mycobacterium tuberculosis
α-chymotrypsin = α-chymotrypsin (Bos taurus, UniProt P00766); experiment: Inhibition of α-chymotrypsin; type: biochemical, mammalian
Excerpt: The unique inactivation mechanism of oxathiazol-2-ones led to an examination of selectivity of these compounds among non-proteasomal proteases, such as chymotrypsin, trypsin, cathepsin B, and matrix metalloproteinase (MMP)-2, representatives of the serine-, cysteine-, and matrix metalloproteinase classes. […] In contrast to the proteasome's N-terminal Thr active site residue, chymotrypsin's active site Ser residue is positioned internally. Given the lack of a terminal NH2 group, the acyl-enzyme intermediate formed by reaction of oxathiazol-2-one with the γ-OH of chymotrypsin's active site Ser can undergo either aqueous hydrolysis to reactivate the enzyme or regeneration of oxathiazol-2-one by the released —OH or —SH group attacking —CO-γO-Ser.

Mtb proteasome [5] = molecular target: T1, Mtb proteasome; type: biochemical; settings: dialysis 18 hours against inhibitor-free buffer
[6] = molecular target: proteasome in M. bovis BCG (Mycobacterium bovis, UniProt A1KKF3); experiment: cell-based; settings: read-out: intrabacterial proteasome inhibition
proteasome in M. bovis BCG, sequence (A1KKF3 whole entry, looked up): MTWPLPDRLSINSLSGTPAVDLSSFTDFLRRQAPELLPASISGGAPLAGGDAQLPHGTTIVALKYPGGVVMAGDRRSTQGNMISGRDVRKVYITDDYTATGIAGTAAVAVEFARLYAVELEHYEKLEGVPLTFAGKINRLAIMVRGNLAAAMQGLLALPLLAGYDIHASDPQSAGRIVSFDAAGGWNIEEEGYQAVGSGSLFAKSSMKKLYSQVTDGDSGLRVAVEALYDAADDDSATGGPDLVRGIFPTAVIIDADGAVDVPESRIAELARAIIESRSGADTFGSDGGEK

human skin fibroblasts = experiment: Cytotoxicity, human skin fibroblasts; type: cell-based; settings: up to 50 μM, 4 days
Protocol: (§1) Given that proteasome-inhibiting oxathiazol-2ones killed mycobacteria, their impact on the survival of mammalian cells was tested. […] In contrast, less than 10% of Vero cells remained viable after 4-day exposure to 25 nM bortezomib. Finally, because most Mtb in nature resides in human macrophages, we exposed human monocyte-derived macrophages (mostly multinucleated giant cells) to 100 μM GL3, GL5 or GL6 for 7 days.

human lung fibroblasts = experiment: Cytotoxicity, human lung fibroblasts; type: cell-based; settings: up to 50 μM, 4 days
Protocol: as §1

[7] = system: Vero monkey kidney epithelial cells; experiment: Cytotoxicity, Vero cells; type: cell-based; settings: for cytotoxicity: up to 50 μM, 4 days
Protocol: as §1

[8] = system: mouse macrophage-like RAW264.7 cells; experiment: Cytotoxicity, RAW264.7 cells; type: cell-based; settings: up to 50 μM, 4 days
Protocol: as §1

[9] = system: human monocyte-derived macrophages; experiment: Cytotoxicity, human monocyte-derived macrophages; type: cell-based; settings: 7 days
Protocol: as §1

Mtb PrcAB-OG [10] = molecular target: T2, Mtb PrcAB-OG; type: biochemical
Target sequence in this assay (P9WHT9 58-291): as the sequence (P9WHT9 58-291) above
Target sequence in this assay (P9WHU1 9-248 partner, looked up, natural form): as the sequence (P9WHU1 9-248 partner, looked up, natural form) above

human proteasome = human proteasome (Homo sapiens, UniProt P28072+P28074+Q99436); experiment: Preliminary inhibition studies of human proteasome with oligopeptide substrates
[11] = Table 1, read-out: kobs/[I] Mtb-OG
[12] = 50 μM, 4 days, Mtb exposed overnight to 100 μM DETA
[13] = 50 μM, 4 days, Mtb exposed overnight to 100 μM DETA-NO
[14] = Mycobacterium tuberculosis, H37RV, 96 h; read-out: Mtb killing (50 μM)

O=c1oc(-c2cnccn2)ns1 [5-(pyrazin-2-yl)-1,3,4-oxathiazol-2-one]
inhibition of Mtb proteasome (Mtb proteasome [1]): found to inhibit the Mtb proteasome, albeit less potently than GL5

CSc1sc(C)cc1-c1nsc(=O)o1 [GL5]
Hill coefficient (Mtb PrcAB-OG) (Mtb PrcAB-OG [2]): 1 | effect of substrate concentration on rate of inactivation (Mtb PrcAB-OG [2]): Increasing substrate concentration reduced the rate of proteasome inactivation | kinact/K (Mtb PrcAB-OG [2]; Mtb PrcAB-OG, corrected for substrate competition, […]): 625 ± 12.2^b M^−1s^−1 | kinact/KI (Mtb PrcAB-OG [2]; [11]): 376 M⁻¹ s⁻¹ | kinact/KI (Mtb PrcAB-OG [2]; corrected for substrate competition, read-out: kinact/K for GL5 vs Mtb proteasome): 624 ± 12.2 M⁻¹ s⁻¹ | kinact/KI (Mtb PrcAB-OG [2]; slope of kobs vs [I], not corrected for substrate competition, read-out: apparent value of kobs/[I]): 476 ± 9.3 M⁻¹ s⁻¹ | improvement in species selectivity ratio relative to bortezomib (Mtb PrcAB-OG [3]): ~1160 fold | selectivity toward Mtb proteasome over human β5 proteasome subunit (Mtb PrcAB-OG [3]): 64 fold | Ratio (Mtb PrcAB-OG [3]; kobs/[I] Mtb-OG versus Hu20S PA28): 1033 | reversibility of inactivation of human proteasome β5 subunit ([4]; plots of kobs vs [I] not passing through origin): reversible | kinact/KI ([4]; read-out: kobs/[I] H20S-β5): 9.8 ± 1.3 M⁻¹ s⁻¹ | kinact/KI ([4]; read-out: kobs/[I] Hu20S PA28): 0.4 M⁻¹ s⁻¹ | reduction of colony forming units (CFU) (M. bovis BCG; 25 μM, 4 days): 400 fold | reduction of colony forming units (CFU) (M. bovis BCG; 50 μM, 4 days): more than 2000 fold | log reduction at 25 µM (M. bovis BCG): > 2 | killing of BCG (M. bovis BCG; alone and with DETA-NO 50 μM, 4 days): able to kill BCG | reduction of number of CFU (Mtb H37Rv; [12]): not if they had been exposed to DETA | reduction of number of CFU (Mtb H37Rv; [13]): 47 fold | log reduction at 50 µM (Mtb H37Rv; Mycobacterium tuberculosis, H37RV, 96 h, read-out: Mtb killing (50 μM)): 1.4 | IC50 (α-chymotrypsin): 0.064 µM | Ki (α-chymotrypsin; reversible, time-independent inhibition): 0.064 µM | activity recovered after dialysis (Mtb proteasome [5]): did not restore the activity | inhibition at 10 µM [6]: ≥ 50% | cytotoxicity (human skin fibroblasts): no evident cytotoxicity | cytotoxicity (human lung fibroblasts): no evident cytotoxicity | cytotoxicity [7]: no evident cytotoxicity | cytotoxicity [8]: no evident cytotoxicity | morphologic sign of cytotoxicity ([9]; 100 μM): no morphologic sign of cytotoxicity

Cc1cc(-c2nsc(=O)o2)c(S(C)(=O)=O)s1 [GL6]
reduction of number of CFU (Mtb H37Rv; [12]): did not lead to a reduction of CFU | reduction of number of CFU (Mtb H37Rv; [13]): did not lead to a reduction of CFU | prevention of β-casein degradation by Mtb proteasome (Mtb PrcAB-OG [10]): but not GL6 | cytotoxicity (human skin fibroblasts): no evident cytotoxicity | cytotoxicity (human lung fibroblasts): no evident cytotoxicity | cytotoxicity [7]: no evident cytotoxicity | cytotoxicity [8]: no evident cytotoxicity | morphologic sign of cytotoxicity ([9]; 100 μM): no morphologic sign of cytotoxicity | inhibition of Mtb proteasome (Mtb proteasome [1]): inhibited neither | inhibition of human proteasome (human proteasome): inhibited neither

O=c1oc(-c2cc([N+](=O)[O-])cs2)ns1 [HT1016]
kinact/KI (Mtb PrcAB-OG [2]; [11]): 732 M⁻¹ s⁻¹ | kinact/KI ([4]; read-out: kobs/[I] Hu20S PA28): 12.3 M⁻¹ s⁻¹ | log reduction at 25 µM (M. bovis BCG): > 3 | log reduction at 50 µM (Mtb H37Rv; [14]): 2.2 | IC50 (α-chymotrypsin): 5.87 µM

O=c1oc(-c2ccc([N+](=O)[O-])cc2)ns1 [HT1041]
kinact/KI (Mtb PrcAB-OG [2]; read-out: kobs/[I] Mtb-OG): 598 M⁻¹ s⁻¹ | kinact/KI ([4]; read-out: kobs/[I] Hu20S PA28): 12.9 M⁻¹ s⁻¹ | log reduction at 25 µM (M. bovis BCG): 0.8 | log reduction at 50 µM (Mtb H37Rv; [14]): 1.7 | IC50 (α-chymotrypsin): 2.08 µM

O=c1oc(-c2cccc([N+](=O)[O-])c2)ns1 [HT1042]
kinact/KI (Mtb PrcAB-OG [2]; read-out: kobs/[I] Mtb-OG): 729 M⁻¹ s⁻¹ | kinact/KI ([4]; read-out: kobs/[I] Hu20S PA28): 10.3 M⁻¹ s⁻¹ | log reduction at 25 µM (M. bovis BCG): 2 | log reduction at 50 µM (Mtb H37Rv; [14]): 1.7 | IC50 (α-chymotrypsin): 3.14 µM

O=c1oc(-c2ccccn2)ns1 [HT1043]
kinact/KI (Mtb PrcAB-OG [2]; read-out: kobs/[I] Mtb-OG): 460 M⁻¹ s⁻¹ | kinact/KI ([4]; read-out: kobs/[I] Hu20S PA28): 0.2 M⁻¹ s⁻¹ | log reduction at 25 µM (M. bovis BCG): 1 | log reduction at 50 µM (Mtb H37Rv; [14]): 1.8 | IC50 (α-chymotrypsin): 16.6 µM

Cc1ccc(-c2nsc(=O)o2)s1 [HT1044]
kinact/KI (Mtb PrcAB-OG [2]; [11]): 1070 M⁻¹ s⁻¹ | kinact/KI ([4]; read-out: kobs/[I] Hu20S PA28): 148 M⁻¹ s⁻¹ | log reduction at 25 µM (M. bovis BCG): 1.7 | log reduction at 50 µM (Mtb H37Rv; [14]): 2 | IC50 (α-chymotrypsin): 8.02 µM

COc1cccc(-c2nsc(=O)o2)c1 [HT1054]
kinact/KI (Mtb PrcAB-OG [2]; read-out: kobs/[I] Mtb-OG): 636 M⁻¹ s⁻¹ | kinact/KI ([4]; read-out: kobs/[I] Hu20S PA28): 14.8 M⁻¹ s⁻¹ | log reduction at 25 µM (M. bovis BCG): > 3 | log reduction at 50 µM (Mtb H37Rv; [14]): 2 | IC50 (α-chymotrypsin): 2.19 µM

O=c1oc(-c2cccc(F)c2)ns1 [HT1071]
kinact/KI (Mtb PrcAB-OG [2]; read-out: kobs/[I] Mtb-OG): 1060 M⁻¹ s⁻¹ | kinact/KI ([4]; read-out: kobs/[I] Hu20S PA28): 31.3 M⁻¹ s⁻¹ | log reduction at 25 µM (M. bovis BCG): > 3 | log reduction at 50 µM (Mtb H37Rv; [14]): 2.2 | IC50 (α-chymotrypsin): 2.67 µM

O=c1oc(-c2cccc(C(F)(F)F)c2)ns1 [HT1086]
kinact/KI (Mtb PrcAB-OG [2]; [11]): 155 M⁻¹ s⁻¹ | kinact/KI ([4]; read-out: kobs/[I] Hu20S PA28): 0.4 M⁻¹ s⁻¹ | IC50 (α-chymotrypsin): 48.1 µM

O=c1oc(-c2ccco2)ns1 [HT1113]
kinact/KI (Mtb PrcAB-OG [2]; [11]): 435 M⁻¹ s⁻¹ | kinact/KI ([4]; read-out: kobs/[I] Hu20S PA28): 10.1 M⁻¹ s⁻¹ | log reduction at 25 µM (M. bovis BCG): 1 | log reduction at 50 µM (Mtb H37Rv; [14]): 2 | IC50 (α-chymotrypsin): 22.7 µM

Cc1ccc(-c2nsc(=O)o2)cc1 [HT1117]
kinact/KI (Mtb PrcAB-OG [2]; [11]): 433 M⁻¹ s⁻¹ | kinact/KI ([4]; read-out: kobs/[I] Hu20S PA28): 53.4 M⁻¹ s⁻¹ | IC50 (α-chymotrypsin): 3.67 µM

Cc1cccc(-c2nsc(=O)o2)c1 [HT1118]
kinact/KI (Mtb PrcAB-OG [2]; read-out: kobs/[I] Mtb-OG): 133 M⁻¹ s⁻¹ | kinact/KI ([4]; read-out: kobs/[I] Hu20S PA28): 11.3 M⁻¹ s⁻¹ | log reduction at 25 µM (M. bovis BCG): 0.8 | log reduction at 50 µM (Mtb H37Rv; [14]): 1.7 | IC50 (α-chymotrypsin): 15.8 µM

O=c1oc(-c2ccccc2)ns1 [HT1146]
kinact/KI (Mtb PrcAB-OG [2]; [11]): 409 M⁻¹ s⁻¹ | kinact/KI ([4]; read-out: kobs/[I] Hu20S PA28): 31.3 M⁻¹ s⁻¹ | IC50 (α-chymotrypsin): 10 µM

COc1cc(OC)cc(-c2nsc(=O)o2)c1 [HT1147]
kinact/KI (Mtb PrcAB-OG [2]; [11]): 45.8 M⁻¹ s⁻¹ | IC50 (α-chymotrypsin): 83.9 µM

Cc1sc(-c2nsc(=O)o2)cc1[N+](=O)[O-] [HT1171]
kinact/KI (Mtb PrcAB-OG [2]; [11]): 3490 M⁻¹ s⁻¹

C[C@@]12OC(=O)[C@]1([C@@H](O)[C@@H]1C=CCCC1)NC(=O)[C@@H]2CCCl [NPI-0052]
activity recovered after dialysis (Mtb proteasome [5]): did not restore the activity

CC(C)C[C@H](NC(=O)[C@H](Cc1ccccc1)NC(=O)c1cnccn1)B(O)O [bortezomib, reference compound]
activity recovered after dialysis (Mtb proteasome [5]): 70% | Vero cells remaining viable ([7]; 25 nM, 4-day exposure): less than 10% | morphologic sign of cytotoxicity ([9]; 0.5 μM): rounded up or appeared to disintegrate
